Source: patent US10112945B2, “Fused quinoline compunds as PI3K, mTOR inhibitors” (ADVENCHEN PHARMACEUTICALS, NANJING LTD., priority 2014, dated 2018)

Legend:
[1] = biological target: T1, mTor (Homo sapiens, UniProt P42345); test: In vitro kinase inhibition, mTor (Millipore/Merck kinases panel screening); assay type: biochemical; conditions: compound at 0.03 μM; scaffold drawing 7 series
T1 construct: purchased Millipore/Merck KGA
Description: (§1) In vitro kinase inhibition activities included Pi3k and mTor activities can be tested with Millipore/Merck KGA of Europe in their kinases panel screening. Animal antitumor activity testing can be conducted by various cancer xenograft models for a compound of formula I.
(§2) The following compounds or a pharmaceutically acceptable salt thereof, but not limited, can also be prepared similarly according to the methods described in Scheme I-Scheme II. They are also tested for the inhibitions on mTor or pi3k kinases, or tumor cell lines.

[2] = tested on: pi3K; test: In vitro kinase inhibition, pi3K (Millipore/Merck kinases panel screening); assay type: biochemical; conditions: compound at 0.03 μM; scaffold drawing 7 series
Description: as §1, §2

Row | Compound | mTor % activity @0.03 μM [1] [%] | pi3K % activity @0.03 μM [2] [%] | activity at 0.03 µM [1] [%]
1 | Fc1cccc(-c2ccc3ncc4c(c3c2)n(-c2ccc(Cl)c(C(F)(F)F)c2)c2nncn42)c1 [3-Flurophenyl, 4-Cl, H] | 46 | – | –
2 | Nc1ccc(-c2ccc3ncc4c(c3c2)n(-c2ccc(Cl)c(C(F)(F)F)c2)c2nncn42)cn1 [5-pyridin-2-amine, 4-Cl, H, 5-{16-[4-chloro-3-(trifluoromethyl)phenyl]-8,11,13,14,16-pentaazatetracyclo-[8.6.0.0^2,7.0^11,15]hexadeca-1(10),2,4,6,8,12,14-heptaen-4-yl}pyridin-2-amine] | – | 38 | -19
3 | CN(C)CC(=O)Nc1ccc(-c2ccc3ncc4c(c3c2)n(-c2cccc(C(F)(F)F)c2)c2nncn42)cn1 [2-(dimethylamino)-N-(5-{16-[3-(trifluoromethyl)phenyl]-8,11,13,14,16-pentaazatetracyclo-[8.6.0.0^2,7.0^11,15]hexadeca-1(10),2,4,6,8,12,14-heptaen-4-yl}pyridin-2-yl)acetamide] | – | 89 | 7
4 | CN(C)CC(=O)Nc1ccc(-c2ccc3ncc4c(c3c2)n(-c2ccc(Cl)c(C(F)(F)F)c2)c2nncn42)cn1 [N-(5-{16-[4-chloro-3-(trifluoromethyl)phenyl]-8,11,13,14,16-pentaazatetracyclo[8.6.0.0^2,7.0^11,15]-hexadeca-1(10),2,4,6,8,12,14-heptaen-4-yl}pyridin-2-yl)-2-(dimethylamino)acetamide] | – | – | 15
5 | CN1CCN(CC(=O)Nc2ccc(-c3ccc4ncc5c(c4c3)n(-c3ccc(Cl)c(C(F)(F)F)c3)c3nncn53)cn2)CC1 [N-(5-{16-[4-chloro-3-(trifluoromethyl)phenyl]-8,11,13,14,16-pentaazatetracyclo[8.6.0.0^2,7.0^11,15]-hexadeca-1(10),2,4,6,8,12,14-heptaen-4-yl}pyridin-2-yl)-2-(4-methylpiperazin-1-yl)acetamide] | – | 74 | -4
6 | FC(F)(F)c1cc(-n2c3c4cc(-c5cccnc5)ccc4ncc3n3cnnc23)ccc1Cl [3-pyridine, 4-Cl, H, 16-[4-chloro-3-(trifluoromethyl)phenyl]-4-(pyridin-3-yl)-8,11,13,14,16-pentaazatetracyclo-[8.6.0.0^2,7.0^11,15]hexadeca-1(10),2,4,6,8,12,14-heptaene] | – | 77 | 19
7 | Fc1ccc(-c2ccc3ncc4c(c3c2)n(-c2ccc(Cl)c(C(F)(F)F)c2)c2nncn42)cc1F [3,4-Diflurophenyl, 4-Cl, H, 16-[4-chloro-3-(trifluoromethyl)phenyl]-4-(3,4-difluorophenyl)-8,11,13,14,16-pentaazatetra-cyclo-[8.6.0.0^2,7.0^11,15]hexadeca-1(10),2,4,6,8,12,14-heptaene] | 31 | – | –
8 | FC(F)(F)c1cc(-n2c3c4cc(-c5cnc6ccccc6c5)ccc4ncc3n3cnnc23)ccc1Cl [3-quinoline, 4-Cl, H, 16-[4-chloro-3-(trifluoromethyl)phenyl]-4-(quinolin-3-yl)-8,11,13,14,16-pentaazatetracyclo-[8.6.0.0^2,7.0^11,15]hexadeca-1(10),2,4,6,8,12,14-heptaene] | – | 84 | 11
9 | FC(F)(F)c1cc(-n2c3c4cc(-c5cnc6ccccc6c5)ccc4ncc3n3cnnc23)cc(C(F)(F)F)c1 [3-quinoline, 5-CF3, H, 16-[3,5-(trifluoromethyl)phenyl]-4-(quinolin-3yl)-8,11,13,14,16-pentaazatetracyclo-[8.6.0.0^2,7.0^11,15]hexadeca-1(10),2,4,6,8,12,14-heptaene] | 0 | – | –
10 | FC(F)(F)c1cccc(-n2c3c4cc(-c5cccnc5)ccc4ncc3n3cnnc23)c1 [3-pyridine, H, H, 16-(3-(trifluoromethyl)phenyl)-4-(pyridin-3-yl)-8,11,13,14,16-pentaazatetracyclo-[8.6.0.0^2,7.0^11,15]hexadeca-1(10),2,4,6,8,12,14-heptaene] | – | 70 | 0
11 | 12-ethyl-16-[4-fluoro-3 -(trifluoromethyl)phenyl]-4-8,11,13,14,16-pentaazatetracyclo[8.6.0.0^2,7.0^11,15]hexadeca-1(10),2,4,6,8,12,14-heptaene [3-pyridine, 4-F, CH2CH3] | 73 | – | –
12 | OCCNc1ccc(-c2ccc3ncc4c(c3c2)n(-c2ccc(Cl)c(C(F)(F)F)c2)c2nncn42)cn1 [2-[(5-{16-[4-chloro-3-(trifluoromethyl)phenyl]-8,11,13,14,16-pentaazatetracyclo-[8.6.0.0^2,7.0^11,15]-hexadeca-1(10),2,4,6,8,12,14-heptaen-4-yl}pyridin-2-yl)amino]ethanol] | – | 82 | -4
13 | O=C(CN1CCC(O)CC1)Nc1ccc(-c2ccc3ncc4c(c3c2)n(-c2ccc(Cl)c(C(F)(F)F)c2)c2nncn42)cn1 [N-(5-{16-[4-chloro-3-(trifluoromethyl)phenyl]-8,11,13,14,16-pentaazatetracyclo[8.6.0.0^2,7.0^11,15]-hexadeca-1(10),2,4,6,8,12,14-heptaen-4-yl}pyridin-2-yl)-2-(4-hydroxypiperidin-1-yl)acetamide] | – | – | 14
14 | Fc1ccc(C(F)(F)F)cc1-n1c2c3cc(-c4cnc5ccccc5c4)ccc3ncc2n2cnnc12 [3-quinoline, 6-F, H, 16-[2-fluoro-5-(trifluoromethyl)phenyl]-4-(quinolin-3yl)-8,11,13,14,16-pentaazatetracyclo-[8.6.0.0^2,7.0^11,15]hexadeca-1(10),2,4,6,8,12,14-heptaene] | – | – | 0
15 | Fc1ccccc1-c1ccc2ncc3c(c2c1)n(-c1ccc(Cl)c(C(F)(F)F)c1)c1nncn31 [2-Flurophenyl, 4-Cl, H, 16-[4-chloro-3-(trifluoromethyl)phenyl]-4-(2-fluorophenyl)-8,11,13,14,16-pentaazatetracyclo-[8.6.0.0^2,7.0^11,15]hexadeca-1(10),2,4,6,8,12,14-heptaene] | – | – | 55
16 | CC(=O)Nc1ccc(-c2ccc3ncc4c(c3c2)n(-c2ccc(Cl)c(C(F)(F)F)c2)c2nncn42)cn1 [N-(5-pyridin-2-yl)acetamide, 4-Cl, H, N-(5-{16-[4-chloro-3-(trifluoromethyl)phenyl]-8,11,13,14,16-pentaazatetracyclo-[8.6.0.0^2,7.0^11,15]hexadeca-1(10),2,4,6,8,12,14-heptaen-4-yl}pyridin-2-yl)acetamide] | – | – | 5
17 | O=C1CCN(CC(=O)Nc2ccc(-c3ccc4ncc5c(c4c3)n(-c3ccc(Cl)c(C(F)(F)F)c3)c3nncn53)cn2)CC1 [N-(5-{16-[4-chloro-3-(trifluoromethyl)phenyl]-8,11,13,14,16-pentaazatetracyclo[8.6.0.0^2,7.0^11,15]-hexadeca-1(10),2,4,6,8,12,14-heptaen-4-yl}pyridin-2-yl)-2-(4-oxopiperidin-1-yl)acetamide] | – | – | 57
18 | Fc1cc(-n2c3c4cc(-c5cnc6ccccc6c5)ccc4ncc3n3cnnc23)cc(C(F)(F)F)c1 [3-quinoline, 5-F, H, 16-[3-fluoro-5-(trifluoromethyl)phenyl]-4-(quinolin-3yl)-8,11,13,14,16-pentaazatetracyclo-[8.6.0.0^2,7.0^11,15]hexadeca-1(10),2,4,6,8,12,14-heptaene] | – | – | -8
